Source: article PMC5645128, “Hydrophobic residues are critical for the helix-forming, hemolytic and bactericidal activities of amphipathic antimicrobial peptide TP4” (PLoS ONE, 2017)
Values after ≈ are worked out from the molar mass of the structure shown. Ends that are not written are not given here.

Assays:
P. aeruginosa = format: cell-based, Pseudomonas aeruginosa
Protocol: (§1) All the tested microbes were cultured at 37°C except C. albicans (30°C) in respective medium. 90 μl of cell suspension (2–4 x10^6 cfu/ml) mixed with 10 μl of diluted TP4 were loaded in 96-well microplate and incubated overnight with gentle agitation at 100 rpm. The absorbance of TP4-treated bacteria in 96-well plate was measured by SpectraMax 190 microplate reader at 600 nm. The remaining cfu in the TP4-treated sample was determined by plating on agar plates. Minimum inhibitory concentration (MIC) was defined as the lowest AMP concentration in order to keep the solution with the same absorbance as that of culture medium. Minimum bactericidal concentration (MBC) was defined as the lowest AMP concentration able to kill 99.99% of microorganisms. At least three independent experiments were performed to determine the average value with standard deviation.

S. aureus = format: cell-based, Staphylococcus aureus
Protocol: as §1

MRSA = format: cell-based, methicillin-resistant Staphylococcus aureus
Protocol: as §1

C. albicans = format: cell-based, Candida albicans
Protocol: as §1

mouse red blood cells = format: cell-based
Protocol: For blood collection, cardiac puncture was performed on anesthetized mice (by 3% isoflurane) by a 1 ml heparin-rinsed syringe with a 22 gauge needle. After blood collection, the animals were euthanized by cervical dislocation. Fresh mouse blood was rinsed three times with PBS, centrifuged for 5 minutes at 1500 rpm and re-suspended in PBS (1:30 dilution). The diluted erythrocyte (150 μl) was incubated with TP4-derived peptides at 37°C for 3 hr and centrifuged at 120x g for 5 minutes. The supernatants (100 μl) were transferred to a 96-well plate and the absorbance of released hemoglobin was measured by SpectraMax 190 microplate reader at 414 nm. Percent hemolysis was calculated by the following formula: % hemolysis = [(A414in the peptide solution−A414in PBS)/(A414in 0.1% Triton-X 100 –A414in PBS)]. Zero and 100% hemolysis were determined in PBS and 0.1% Triton-X 100, respectively.
Fig 8 Hemolytic activity of TP4-derived peptides. Diluted mouse red blood cells (150 μl) was incubated with TP4-derived peptides at 37°C for 3 hr and spun at 120 x g for 5 minutes. The supernatants (100 μl) were transferred to a 96-well plate for measurement of released hemoglobulin at 414 nm by the SpectraMax 190 microplate reader.

[1] = format: physicochemical
Protocol: Fig 4 Hydrophobicity and solubility of TP4 in the presence of sarkosyl and LPS. (A) ANS emission spectrum of TP4 in solution containing sarkosyl. TP4 (4 μg) was dissolved in 200 μl of 10 mM sodium phosphate, pH7.4, 0.1 M NaCl, containing various concentrations of sarkosyl (0.075%, w/v, designated as 1x). (B) ANS emission spectrum of TP4 in solution containing LPS. TP4 (4 μg) was dissolved in 200 μl of 10 mM sodium phosphate, pH7.4, containing various amounts of LPS as indicated. ANS was added stepwise to the final concentrations as indicated (lines 1 to 6 at 0, 10, 20, 30, 40 and 50 μM, respectively). Arrows indicate the emission maximum at 470 nm or 520 nm for bound- and free-form ANS, respectively. (C, D) Solubility of TP4 in solution containing either sarkosyl or LPS. TP4 (4 μg) dissolved in 200 μl of respective solution containing sarkosyl or LPS at concentration as indicated was spun at 14,000 x g for 15 min and analyzed by SDS-PAGE/Coomassie blue staining.
Fig 9 OprI-binding ability of TP4-derived peptides. (A) Competition for OprI binding by TP4-derived peptides. […] The gel pellet was analyzed by non-reducing SDS-PAGE/Coomassie blue staining. rOprI, recombinant OprI; S.t, Streptavidin. […] TP4-derived peptides (6 μg each) dissolved in 1x sarkosyl buffer (300 μl) were incubated at 37°C for 10 min, then spun at 14,000 x g for 15 min and analyzed by SDS-PAGE/Coomassie blue staining. […]

Compound	MBC (P. aeruginosa)	MIC (P. aeruginosa)	MBC (S. aureus)	MIC (S. aureus)	MBC (MRSA)	MIC (MRSA)	MBC (C. albicans)	MIC (C. albicans)	hemolytic activity compared with wild type TP4 (mouse red blood cells)	solubility of TP4 in 1x Sar [1]
FIHHAAGGLFSAGKAIHRLIRRRRR [I5A/I6A]	512 mg/L	512 mg/L	>512 mg/L	>512 mg/L	>512 mg/L	>512 mg/L	128 mg/L	128 mg/L		
FIHHIIGGLFSVGKHIHSLIHRRRR [VHSH]	>512 mg/L	>512 mg/L	16 mg/L	16 mg/L	32 mg/L	16 mg/L	128 mg/L	128 mg/L		
FIAAIIGGLFSAGKAIHRLIRRRRR [H3A/H4A]	>512 mg/L	>512 mg/L	32 mg/L	32 mg/L	256 mg/L	128 mg/L	512 mg/L	512 mg/L		
AAHHIIGGLFSAGKAIHRLIRRRRR [F1A/I2A]	256 mg/L	256 mg/L	256 mg/L	128 mg/L	>512 mg/L	>512 mg/L	128 mg/L	64 mg/L		
CC[C@H](C)[C@H](NC(=O)[C@H](CO)NC(=O)[C@H](Cc1ccccc1)NC(=O)[C@H](CC(C)C)NC(=O)CNC(=O)CNC(=O)[C@@H](NC(=O)[C@@H](NC(=O)[C@H](Cc1c[nH]cn1)NC(=O)[C@H](Cc1c[nH]cn1)NC(=O)[C@@H](NC(=O)[C@@H](N)Cc1ccccc1)[C@@H](C)CC)[C@@H](C)CC)[C@@H](C)CC)C(=O)NCC(=O)N[C@@H](CCCCN)C(=O)N[C@H](C(=O)N[C@H](C(=O)N[C@@H](Cc1c[nH]cn1)C(=O)N[C@@H](CCCNC(=N)N)C(=O)N[C@@H](CC(C)C)C(=O)N[C@H](C(=O)N[C@@H](CCCNC(=N)N)C(=O)N[C@@H](CCCNC(=N)N)C(=O)N[C@@H](CCCNC(=N)N)C(=O)N[C@@H](CCCNC(=N)N)C(=O)N[C@@H](CCCNC(=N)N)C(=O)O)[C@@H](C)CC)[C@@H](C)CC)[C@@H](C)CC [A12I/A15I]	>512 mg/L	512 mg/L (≈ 167 µM)	64 mg/L (≈ 20.9 µM)	16 mg/L (≈ 5.22 µM)	256 mg/L (≈ 83.5 µM)	64 mg/L (≈ 20.9 µM)	128 mg/L (≈ 41.8 µM)	128 mg/L (≈ 41.8 µM)	four times higher activity than wild type TP4	
FIHHIIGGLFSAGKAAHRLIRRRRR [I16A]	>512 mg/L	256 mg/L	128 mg/L	64 mg/L	512 mg/L	64 mg/L	128 mg/L	128 mg/L		
FIHHIIGGLFSAGKAIHSLIHRRRR [R18S/R21H]	512 mg/L	256 mg/L	64 mg/L	32 mg/L	32 mg/L	32 mg/L	512 mg/L	256 mg/L		
FIHHIIGGLFSAGKAEHRLIRRRRR [I16E]	>512 mg/L	>512 mg/L	>512 mg/L	>512 mg/L	>512 mg/L	>512 mg/L	128 mg/L	128 mg/L		
FIHHIIGGAASAGKAIHRLIRRRRR [L9A/F10A]	>512 mg/L	>512 mg/L	>512 mg/L	>512 mg/L	>512 mg/L	>512 mg/L	128 mg/L	128 mg/L		
HHIIGGLFSAGKAIHRLIRRRRR [dN2]	>512 mg/L	512 mg/L	512 mg/L	512 mg/L	>512 mg/L	>512 mg/L	128 mg/L	128 mg/L		
FIHHIIGGLFSVGKHIHSLIHGH [TP3, reference compound]	>512 mg/L	>512 mg/L	256 mg/L	256 mg/L	>512 mg/L	256 mg/L	128 mg/L	128 mg/L		
FIHHIIGGLFSAGKAIHRLIRRRRR [TP4] [listing 1 of 2 here]	128 mg/L	64 mg/L	16 mg/L	8 mg/L	32 mg/L	16 mg/L	128 mg/L	128 mg/L		
FIHHIIGGLFSAGKAIHRLIR [dC4]	>512 mg/L	>512 mg/L	128 mg/L	64 mg/L	256 mg/L	256 mg/L	256 mg/L	128 mg/L		
FIHHIIGGLFSAGKAIHRLIRRR [dC2]	>512 mg/L	512 mg/L	32 mg/L	16 mg/L	32 mg/L	32 mg/L	128 mg/L	128 mg/L		
FIHHIIGGLFSAGKARHRLIRRRRR [I16R]	>512 mg/L	>512 mg/L	>512 mg/L	>512 mg/L	>512 mg/L	>512 mg/L	256 mg/L	128 mg/L		
IIGGLFSAGKAIHRLIRRRRR [dN4]	>512 mg/L	256 mg/L	128 mg/L	128 mg/L	256 mg/L	64 mg/L	128 mg/L	64 mg/L		
FIHHIIGGLFSAGKAIHRLIRRRRR [TP4] [listing 2 of 2 here]										less than 80 μM
FIHHIIGGLFSVGKHIHRLIRRRRR [A12V/A15H]	128 mg/L	128 mg/L	16 mg/L	16 mg/L	64 mg/L	32 mg/L	128 mg/L	128 mg/L		
FIHHIIGGLFSAGKAIHRHHRRRRR [L19H/I20H]	>512 mg/L	256 mg/L	512 mg/L	128 mg/L	>512 mg/L	>512 mg/L	128 mg/L	128 mg/L		
